In ChEMBL document CHEMBL5352402, “Discovery of novel non-nucleoside inhibitors with high potency and selectivity for DNA methyltransferase 3A” (Eur J Med Chem, 2022):
Active and inactive are the calls of the source. The calls are words filed in the database; no cut-off is given here.

Columns and labels:
[1] = target: T1, DNMT3A2/3L complex (Homo sapiens) (UniProt Q9Y6K1+Q9UJW3); assay: (§1) Inhibition of N-terminal His-tagged human DNMT3A (623 to 912 residues)/N-terminal GST-tagged human DNMT3L (160 to 387 residues) co-expressed in baculovirus infected Sf9 cells assessed as DNA methylation using DNA oligonucleotide IDT-01 as substrate at 10 uM preincubated for 15 mins followed by substrate addition in presence of [3H]-SAM and measured after 4 hrs by radioactive methylation assay; conditions: time 255.0 min
[2] = target: T1, DNMT3A2/3L complex (Homo sapiens); assay: as §1, with “100” for “10”; conditions: time 255.0 min
THP-1 [3] = assay: Antiproliferative activity against human THP-1 cells assessed as inhibition of cell proliferation at 100 uM incubated for 24 to 72 hrs by MTT assay; assay type: functional, cell-based; conditions: time 24-72 hrs, TDE = time-dependent effect
U-937 [4] = assay: Antiproliferative activity against human U-937 cells assessed as inhibition of cell proliferation at 100 uM incubated for 24 to 72 hrs by MTT assay; assay type: functional, cell-based; conditions: time 24-72 hrs, TDE = time-dependent effect
K562 [5] = assay: Antiproliferative activity against human K562 cells assessed as inhibition of cell proliferation at 100 uM incubated for 24 to 72 hrs by MTT assay; assay type: functional, cell-based; conditions: time 24-72 hrs, TDE = time-dependent effect
DU-145 [6] = assay: Antiproliferative activity against human DU-145 cells assessed as inhibition of cell proliferation at 0.1 to 100 uM incubated upto 72 hrs by MTT assay; assay type: functional, cell-based; conditions: dose 0.1-100 µM
THP-1 [7] = assay: Antiproliferative activity against human THP-1 cells assessed as inhibition of cell proliferation at 0.1 to 100 uM incubated upto 72 hrs by MTT assay; assay type: functional, cell-based; conditions: dose 0.1-100 µM
[8] = target: DNA (cytosine-5)-methyltransferase 1 (Homo sapiens, UniProt P26358); assay: Inhibition of N-terminal GST-tagged full-length recombinant human DNMT1 assessed as DNA methylation using pdI-pdC DNA as substrate preincubated for 15 mins followed by substrate addition in presence of [3H]-SAM and measured after 150 mins by radioactive methylation assay
K562 [9] = assay: Antiproliferative activity against human K562 cells assessed as inhibition of cell proliferation incubated for 72 hrs by MTT assay; assay type: functional, cell-based; conditions: K562, 72 h
U-937 [10] = assay: cells; conditions: Homo sapiens, U-937, 72 h
Description: Antiproliferative activity against human U-937 cells assessed as inhibition of cell proliferation incubated for 72 hrs by MTT assay

U-937 [11] = assay: Antiproliferative activity against human U-937 cells assessed as inhibition of cell proliferation at 0.1 to 100 uM incubated upto 72 hrs by MTT assay; assay type: functional, cell-based; conditions: dose 0.1-100 µM
THP-1 [12] = assay: Antiproliferative activity against human THP-1 cells assessed as inhibition of cell proliferation incubated for 72 hrs by MTT assay; assay type: functional, cell-based; conditions: THP-1, 72 h
A549 [13] = assay: Antiproliferative activity against human A549 cells assessed as inhibition of cell proliferation at 0.1 to 100 uM incubated upto 72 hrs by MTT assay; assay type: functional, cell-based; conditions: dose 0.1-100 µM
HCT-116 [14] = assay: cells; conditions: Homo sapiens, HCT-116, 72 h
Description: Antiproliferative activity against human HCT-116 cells assessed as inhibition of cell proliferation incubated for 72 hrs by MTT assay

A549 [15] = assay: cells; conditions: Homo sapiens, A549, 72 h
Description: Antiproliferative activity against human A549 cells assessed as inhibition of cell proliferation incubated for 72 hrs by MTT assay

K562 [16] = assay: Antiproliferative activity against human K562 cells assessed as inhibition of cell proliferation at 0.1 to 100 uM incubated upto 72 hrs by MTT assay; assay type: functional, cell-based; conditions: dose 0.1-100 µM
[17] = target: T2, Histone-lysine N-methyltransferase EHMT2 (Homo sapiens, UniProt Q96KQ7); assay: Inhibition of N-terminal GST-tagged human G9a expressed in baculovirus infected Sf9 cells using biotinylated histone H3 peptide as substrate preincubated for 15 mins followed by substrate addition in presence of SAM and measured after 60 mins by AlphaLISA assay
T2 sequence (Q96KQ7 whole entry): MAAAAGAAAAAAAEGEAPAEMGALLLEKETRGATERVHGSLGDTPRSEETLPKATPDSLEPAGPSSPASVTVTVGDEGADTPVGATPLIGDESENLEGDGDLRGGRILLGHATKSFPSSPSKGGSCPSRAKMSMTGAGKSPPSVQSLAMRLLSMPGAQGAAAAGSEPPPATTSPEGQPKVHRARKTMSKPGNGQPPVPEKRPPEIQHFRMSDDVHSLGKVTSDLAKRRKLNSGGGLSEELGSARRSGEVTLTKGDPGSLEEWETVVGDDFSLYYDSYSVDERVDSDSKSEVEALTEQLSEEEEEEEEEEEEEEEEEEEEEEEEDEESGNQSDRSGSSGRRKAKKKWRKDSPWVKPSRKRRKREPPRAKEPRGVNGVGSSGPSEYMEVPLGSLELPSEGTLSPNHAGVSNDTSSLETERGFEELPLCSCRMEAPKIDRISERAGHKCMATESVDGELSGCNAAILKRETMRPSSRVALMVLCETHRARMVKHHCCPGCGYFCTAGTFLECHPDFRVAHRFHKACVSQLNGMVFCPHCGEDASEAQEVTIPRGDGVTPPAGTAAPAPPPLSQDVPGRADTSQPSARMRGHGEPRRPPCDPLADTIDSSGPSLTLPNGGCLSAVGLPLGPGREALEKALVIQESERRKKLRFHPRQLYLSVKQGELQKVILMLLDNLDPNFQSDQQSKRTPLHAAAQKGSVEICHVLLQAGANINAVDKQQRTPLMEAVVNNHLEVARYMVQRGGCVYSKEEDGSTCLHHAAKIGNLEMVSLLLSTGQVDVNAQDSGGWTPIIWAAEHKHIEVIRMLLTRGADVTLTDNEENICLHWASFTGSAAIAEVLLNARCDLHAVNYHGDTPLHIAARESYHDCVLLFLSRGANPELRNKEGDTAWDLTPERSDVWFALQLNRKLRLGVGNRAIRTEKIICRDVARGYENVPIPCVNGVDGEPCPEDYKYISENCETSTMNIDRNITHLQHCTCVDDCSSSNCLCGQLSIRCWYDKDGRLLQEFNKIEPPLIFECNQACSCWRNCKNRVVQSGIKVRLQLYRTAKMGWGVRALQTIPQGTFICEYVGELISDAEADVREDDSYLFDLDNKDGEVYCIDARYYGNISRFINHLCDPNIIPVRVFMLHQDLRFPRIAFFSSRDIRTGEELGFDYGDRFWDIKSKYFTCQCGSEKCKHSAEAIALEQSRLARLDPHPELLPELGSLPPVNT

DNMT3A2/3L complex = DNMT3A2/3L complex (Homo sapiens, UniProt Q9Y6K1); assay: as §1, with “substrate” for “substrate at 10 uM”
A549 [18] = assay: Antiproliferative activity against human A549 cells assessed as inhibition of cell proliferation at 100 uM incubated for 24 to 72 hrs by MTT assay; assay type: functional, cell-based; conditions: time 24-72 hrs, TDE = time-dependent effect
DU-145 [19] = assay: Antiproliferative activity against human DU-145 cells assessed as inhibition of cell proliferation incubated for 72 hrs by MTT assay; assay type: functional, cell-based; conditions: DU-145, 72 h
[20] = Cytotoxicity activity against human PBMC cells assessed as inhibition of cell proliferation incubated for 72 hrs by MTT assay; assay type: toxicity, cell-based
HCT-116 [21] = assay: Antiproliferative activity against human HCT-116 cells assessed as inhibition of cell proliferation at 0.1 to 100 uM incubated upto 72 hrs by MTT assay; assay type: functional, cell-based; conditions: dose 0.1-100 µM
HCT-116 [22] = assay: Antiproliferative activity against human HCT-116 cells assessed as inhibition of cell proliferation at 100 uM incubated for 24 to 72 hrs by MTT assay; assay type: functional, cell-based; conditions: time 24-72 hrs, TDE = time-dependent effect
DU-145 [23] = assay: Antiproliferative activity against human DU-145 cells assessed as inhibition of cell proliferation at 100 uM incubated for 24 to 72 hrs by MTT assay; assay type: functional, cell-based; conditions: time 24-72 hrs, TDE = time-dependent effect
DNMT3B = DNMT3B (Homo sapiens, UniProt Q9UBC3); assay: as §1, with “DNMT3B (564” for “DNMT3A (623”, “853” for “912”, “substrate” for “substrate at 10 uM”
[24] = target: DNA (cytosine-5)-methyltransferase 3A (Homo sapiens) (UniProt Q9Y6K1); assay: Inhibition of DNMT3A in human HCT-116 cells assessed as increase in p53 protein level at 1 uM incubated for 72 hrs by Western blot analysis; assay type: cell-based
[25] = target: DNA (cytosine-5)-methyltransferase 3A (Homo sapiens) (UniProt Q9Y6K1); assay: Inhibition of DNMT3A in human HCT-116 cells assessed as downregulation of DNMT3A protein level at 1 uM incubated for 72 hrs by Western blot analysis; assay type: cell-based

T1 sequence (Q9UJW3 whole entry, looked up, the tested form may be a part): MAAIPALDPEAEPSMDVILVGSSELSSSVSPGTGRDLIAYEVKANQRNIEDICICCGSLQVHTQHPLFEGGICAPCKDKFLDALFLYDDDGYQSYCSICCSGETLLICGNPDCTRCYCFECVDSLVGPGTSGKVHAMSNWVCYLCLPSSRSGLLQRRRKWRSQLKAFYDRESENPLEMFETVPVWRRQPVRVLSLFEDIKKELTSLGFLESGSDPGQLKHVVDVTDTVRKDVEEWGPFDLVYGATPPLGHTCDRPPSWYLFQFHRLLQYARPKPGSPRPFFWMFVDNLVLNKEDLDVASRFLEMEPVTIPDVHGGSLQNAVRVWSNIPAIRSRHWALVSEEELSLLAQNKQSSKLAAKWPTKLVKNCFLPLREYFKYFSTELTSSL
T1 sequence (Q9Y6K1 whole entry, looked up, the tested form may be a part): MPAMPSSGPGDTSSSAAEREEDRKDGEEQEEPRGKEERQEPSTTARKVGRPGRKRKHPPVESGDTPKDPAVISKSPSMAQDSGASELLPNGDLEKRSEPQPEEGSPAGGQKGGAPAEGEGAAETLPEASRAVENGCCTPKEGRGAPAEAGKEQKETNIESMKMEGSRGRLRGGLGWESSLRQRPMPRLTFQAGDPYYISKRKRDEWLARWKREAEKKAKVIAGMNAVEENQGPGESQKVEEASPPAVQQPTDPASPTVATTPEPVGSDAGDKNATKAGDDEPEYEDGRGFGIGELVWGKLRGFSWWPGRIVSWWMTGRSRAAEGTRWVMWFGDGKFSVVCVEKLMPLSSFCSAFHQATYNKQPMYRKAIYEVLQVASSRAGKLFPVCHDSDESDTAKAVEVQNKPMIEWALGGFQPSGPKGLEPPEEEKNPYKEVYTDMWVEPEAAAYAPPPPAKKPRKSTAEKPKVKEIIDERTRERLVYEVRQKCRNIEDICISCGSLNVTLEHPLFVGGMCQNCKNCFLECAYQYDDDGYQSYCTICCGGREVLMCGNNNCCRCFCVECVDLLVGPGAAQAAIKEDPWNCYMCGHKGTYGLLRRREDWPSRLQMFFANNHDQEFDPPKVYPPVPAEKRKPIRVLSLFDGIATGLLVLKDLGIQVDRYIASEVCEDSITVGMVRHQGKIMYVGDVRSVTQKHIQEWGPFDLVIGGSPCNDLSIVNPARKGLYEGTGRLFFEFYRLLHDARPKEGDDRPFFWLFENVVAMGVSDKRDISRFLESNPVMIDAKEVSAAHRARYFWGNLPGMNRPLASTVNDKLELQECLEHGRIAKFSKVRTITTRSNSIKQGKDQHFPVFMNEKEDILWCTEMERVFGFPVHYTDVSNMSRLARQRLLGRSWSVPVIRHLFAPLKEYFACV
Chain of DNA (cytosine-5)-methyltransferase 3A (Homo sapiens) (Q9Y6K1 whole entry, looked up): as the sequence (Q9Y6K1 whole entry, looked up, the tested form may be a part) above
Chain of DNA (cytosine-5)-methyltransferase 1 (P26358 whole entry): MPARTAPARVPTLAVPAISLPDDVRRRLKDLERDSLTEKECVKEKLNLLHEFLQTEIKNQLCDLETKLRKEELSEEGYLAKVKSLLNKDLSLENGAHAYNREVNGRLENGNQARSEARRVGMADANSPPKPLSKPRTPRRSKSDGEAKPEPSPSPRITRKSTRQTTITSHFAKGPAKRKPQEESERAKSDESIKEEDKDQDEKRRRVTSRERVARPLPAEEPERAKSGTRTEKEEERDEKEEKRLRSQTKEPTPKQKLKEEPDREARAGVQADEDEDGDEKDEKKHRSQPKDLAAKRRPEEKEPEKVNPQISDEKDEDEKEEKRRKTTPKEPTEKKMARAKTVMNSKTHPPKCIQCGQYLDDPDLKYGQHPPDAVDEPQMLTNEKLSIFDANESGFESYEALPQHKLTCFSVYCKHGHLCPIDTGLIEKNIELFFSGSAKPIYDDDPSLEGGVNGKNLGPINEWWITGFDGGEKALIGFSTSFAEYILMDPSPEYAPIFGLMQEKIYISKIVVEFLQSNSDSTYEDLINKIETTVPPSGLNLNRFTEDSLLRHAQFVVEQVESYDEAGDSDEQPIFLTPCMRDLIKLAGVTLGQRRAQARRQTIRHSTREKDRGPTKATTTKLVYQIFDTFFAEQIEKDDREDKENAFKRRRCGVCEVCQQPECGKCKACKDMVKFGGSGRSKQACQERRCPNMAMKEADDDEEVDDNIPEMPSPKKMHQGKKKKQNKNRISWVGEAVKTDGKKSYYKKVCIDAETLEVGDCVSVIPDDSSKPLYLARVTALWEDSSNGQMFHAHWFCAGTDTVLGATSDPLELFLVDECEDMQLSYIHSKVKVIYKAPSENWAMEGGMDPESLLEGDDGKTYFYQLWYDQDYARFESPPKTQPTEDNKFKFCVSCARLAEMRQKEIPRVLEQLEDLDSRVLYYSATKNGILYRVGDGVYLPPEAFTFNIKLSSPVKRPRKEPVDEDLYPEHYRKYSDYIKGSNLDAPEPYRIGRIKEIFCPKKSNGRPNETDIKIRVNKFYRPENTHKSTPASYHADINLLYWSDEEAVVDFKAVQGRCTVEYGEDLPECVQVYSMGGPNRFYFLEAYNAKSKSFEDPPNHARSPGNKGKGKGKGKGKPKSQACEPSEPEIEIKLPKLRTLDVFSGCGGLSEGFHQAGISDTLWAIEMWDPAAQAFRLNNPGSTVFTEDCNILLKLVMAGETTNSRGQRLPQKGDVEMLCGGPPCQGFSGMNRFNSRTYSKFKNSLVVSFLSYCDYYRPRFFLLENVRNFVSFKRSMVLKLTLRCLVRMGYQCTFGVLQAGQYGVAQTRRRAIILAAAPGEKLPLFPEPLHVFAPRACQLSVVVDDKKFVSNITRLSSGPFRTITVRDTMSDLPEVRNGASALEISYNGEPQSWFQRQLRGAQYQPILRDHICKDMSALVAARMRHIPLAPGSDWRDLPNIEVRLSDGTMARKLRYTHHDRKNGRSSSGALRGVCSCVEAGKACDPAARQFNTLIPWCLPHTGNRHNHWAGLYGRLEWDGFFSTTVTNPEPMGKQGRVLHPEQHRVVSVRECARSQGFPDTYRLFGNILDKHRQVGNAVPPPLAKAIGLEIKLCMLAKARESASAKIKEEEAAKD
Chain of DNMT3A2/3L complex (Q9Y6K1 whole entry, looked up, one chain of several): as the sequence (Q9Y6K1 whole entry, looked up, the tested form may be a part) above

Row | SMILES | inhibition [1] | inhibition [2] | IC50 (K562 [9]) | IC50 (U-937 [10]) | IC50 (THP-1 [12]) | IC50 (HCT-116 [14]) | IC50 (A549 [15]) | IC50 (DU-145 [19]) | IC50 at 72 h [20] | also measured
1 | Cc1oc2ncn(CCCN3CCOCC3)c(=O)c2c1C(=O)Nc1ccc(S(N)(=O)=O)nc1 | 36% | 54.2% |  |  |  |  |  |  |  | 
2 | Cc1oc2ncn(CCN3CCCCC3)c(=O)c2c1C(=O)Nc1ccc(S(N)(=O)=O)nc1 | 70.5% | 77.7% | 6.1 µM | 1.8 µM | 2.2 µM | 0.5 µM | 11.1 µM | 5.3 µM | 137 µM | p53 protein level increase (active/not active) [24]: Active; Activity (THP-1 [3]): Tde; Activity (U-937 [4]): Tde; Activity (K562 [5]): Tde; Activity (DU-145 [6]): Dose-Dependent Effect; Activity (THP-1 [7]): Dose-Dependent Effect; IC50 [8]: 51.2 µM; Activity (U-937 [11]): Dose-Dependent Effect; Activity (A549 [13]): Dose-Dependent Effect; Activity (K562 [16]): Dose-Dependent Effect; IC50 [17]: > 500 µM; Activity (A549 [18]): Tde; Activity (HCT-116 [21]): Dose-Dependent Effect; Activity (HCT-116 [22]): Tde; Activity (DU-145 [23]): Tde; IC50 (DNMT3B): > 100 µM
3 | Cc1cc(Nc2ccc(NC(=O)c3ccc(Nc4ccnc5ccccc45)cc3)cc2)nc(N)n1 |  |  | 0.6 µM | 0.7 µM | 0.7 µM | 0.9 µM | 8.9 µM | 3.4 µM | 2 µM | p53 protein level increase (active/not active) [24]: inactive; inhibition [25]: inactive
4 | Cc1oc2ncn(CCCN3CCCC3)c(=O)c2c1C(=O)Nc1ccc(C#N)cc1 | 33.7% | 53.9% |  |  |  |  |  |  |  | 

Now from value to molecule, other results behind:

Row | inhibition [1] | inhibition [2] | IC50 (K562 [9]) | IC50 (U-937 [10]) | IC50 (THP-1 [12]) | IC50 (HCT-116 [14]) | IC50 (A549 [15]) | IC50 (DU-145 [19]) | SMILES | IC50 at 72 h [20] | also measured
5 | 22.7% | 28.4% |  |  |  |  |  |  | Cc1oc2ncn(CCCN3CCOCC3)c(=O)c2c1C(=O)Nc1ccc(C#N)cc1 |  | 
6 | 69.6% | 94.1% | 6.5 µM | 4.2 µM | 3.3 µM | 2.1 µM | 15.7 µM | 2.8 µM | Cc1oc2ncn(CCCN3CCCC3)c(=O)c2c1C(=O)Nc1ccc(S(N)(=O)=O)nc1 | 161 µM | Activity (THP-1 [3]): Tde; Activity (U-937 [4]): Tde; Activity (K562 [5]): Tde; Activity (DU-145 [6]): Dose-Dependent Effect; Activity (THP-1 [7]): Dose-Dependent Effect; IC50 [8]: 9.6 µM; Activity (U-937 [11]): Dose-Dependent Effect; Activity (A549 [13]): Dose-Dependent Effect; Activity (K562 [16]): Dose-Dependent Effect; IC50 [17]: 308 µM; IC50 (DNMT3A2/3L complex): 1.8 µM; Activity (A549 [18]): Tde; Activity (HCT-116 [21]): Dose-Dependent Effect; Activity (HCT-116 [22]): Tde; Activity (DU-145 [23]): Tde; IC50 (DNMT3B): 120 µM
7 | 25.4% | 14.3% |  |  |  |  |  |  | Cc1oc2ncn(CCN3CCCCC3)c(=O)c2c1C(=O)Nc1ccc(C#N)cc1 |  | 
8 | 21.7% | 24% |  |  |  |  |  |  | Cc1oc2ncn(CCN(C)C)c(=O)c2c1C(=O)Nc1ccc(C#N)cc1 |  | 
9 |  | 29.5% |  |  |  |  |  |  | Cc1oc2ncn(CC3CCCO3)c(=O)c2c1C(=O)Nc1ccc(S(N)(=O)=O)nc1 (stereo unspecified) |  | 
10 |  | 29.5% |  |  |  |  |  |  | Cc1oc2ncn(Cc3ccccc3)c(=O)c2c1C(=O)Nc1ccc(S(N)(=O)=O)nc1 |  | 
